In general, IC50 refers to the concentration that inhibits the measured activity by half.

Consider three substances from patent publication US4895869A, “Phenylene, furyl, and thienyl leukotriene B4 analogues” (C. D. Searle & Co., priority 1988, dated 1990).

The target of one assay is T1, LTB4 receptor (Homo sapiens, UniProt Q15722).
T1 construct: neutrophils were purified from venous blood of normal human donors; endogenous in cells; host or cells: neutrophils purified from venous blood of normal human donors (purity at least 95%)
Put plainly: LTB4 Receptor Binding Assay (inhibition of specific binding of (3H) LTB4 to human neutrophils). The note with it: 0.6 nM (3H) LTB4, 0° C., 45 minutes; for IC50: pH 7.4. The source says: (§1) For use in both the "LTB4 receptor Binding Assay" and the "human Neutrophil Degranulation Assay", neutrophils were purified from venous blood of normal human donors using standard techniques of dextran sedimentation, centrifugation on Histopaque® (density solution) and hypotonic lysis of erythrocytes (Boyum, A., Isolation of Leukocytes From Human Blood: Further Observations. Scand. J. Lab. Clin. Inves. 21 (Suppl. 97): 31, 1968). The purity of isolated neutrophils was ≥95%.
Neutrophils (4-6×10^6) in 1 ml of Hanks balanced salt solution containing 10 mM Hepes Buffer (HBSS), pH 7.4 and 30 μM nordihydroguaiaretic acid were incubated with 0.6 nM (^3 H) LTB4 in the presence or absence of test compounds. The incubation was carried out at 0° C. for 45 minutes and terminated by adding 5 ml of ice cold HBSS followed by rapid filtration of incubation mixture under vacuum through GF/C glass fiber filters. The filters were further washed with 10 ml HBSS and their radioactivity was determined. Specific binding was defined as the difference between total binding and nonspecific binding which was not displaced by 10-^7 M unlabeled LTB4.
The inhibition of specific binding was determined for representatives compounds of this invention, and the corresponding IC50 values calculated (Table 1). An IC50 is the concentration of the compound of interest which will inhibit the binding of LTB4 by 50% of the LTB4 receptors. For example, for the compound of Example 7, the IC50 was determined to be approximately

Assay [1] deals with LTB4 induced degranulation of human neutrophils. The experiment in a line: Human Neutrophil Degranulation Assay (LTB4 induced myeloperoxidase release). The note with it: cytochalasin B, LTB4 5×10^-8 M, read-out: Inhibition of LTB4 Induced Neutrophil Degranulation IC50. Format: cell-based.
Text: as §1
LTB4 induced neutrophil degranulation was determined by measuring the release of myeloperoxidase activity into the incubation medium. Neutrophils (3×10^6) in 1 ml HBSS solution were preincubated with cytochalasin B(5 μg) at 37° C. for 5 minutes, followed by preincubation with test compounds for 7 minutes. Neutrophilsere then incubated for 2 to 20 minutes with either LTB4 (5 ×10^-8 M) or the chemotactic peptide f-met-leu-phe (5×10^-6 M) to induce degranulation. Following incubation, samples were centrifuged and myleoperoxidase was extracted from the cell pellets by sonication in phosphate buffer containing 0.4% Triton X-100. Triton X-100 was also added to the supernatents to a concentration of 0.4%. The supernatants and the pellet extracts were then assayed spectrophotometrically for myeloperoxide activity by determining the rate of decomposition of H2 O2 with o-dianisidine as hydrogen donor as described by Renlund D. G., MacFarlane J. L., Christensen, R. D., Lynch R. E., and Rothstein, G., A Quantitative And Sensitive Method For Measurement Of Mveloperoxidase, Clinical Research 28:75A, 1980). Myeloperoxidase activity released into the supernatant was expressed as the percent of the average total activity (pellet plus supernatant).
The inhibition of LTB4 induced neutrophil degranulation was determined for representative compounds of this invention and their corresponding IC50 values were calculated (Table 1). The concentration of a compound which inhibited LTB4 induced neutrophil degranulation by 50% was determined to be its IC50 value.

T1 sequence (Q15722 whole entry): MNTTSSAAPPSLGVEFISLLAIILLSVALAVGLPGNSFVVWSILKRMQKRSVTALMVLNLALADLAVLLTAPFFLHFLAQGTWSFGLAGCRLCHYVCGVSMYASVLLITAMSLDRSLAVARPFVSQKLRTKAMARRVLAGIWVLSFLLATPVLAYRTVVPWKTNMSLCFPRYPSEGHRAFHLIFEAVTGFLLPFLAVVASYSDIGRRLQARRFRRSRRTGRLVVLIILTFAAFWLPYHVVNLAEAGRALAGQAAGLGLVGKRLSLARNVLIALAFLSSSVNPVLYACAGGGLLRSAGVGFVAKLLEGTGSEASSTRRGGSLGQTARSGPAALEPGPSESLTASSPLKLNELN

As to “7-[2-[5-(1-hydroxynonyl)thienyl]-5-hydroxy-6Z-heptenoic acid, lithium salt [Example 23]”, the “Inhibition of Receptor Binding of LTB4, % inhibition” value on LTB4 receptor (at 10 μM) is 20%. The half-maximal inhibitory concentration (IC50) in assay [1] was found to be 8700 nM.
With “7-[2-[5-(1-hydroxynonyl)thienyl]-5-hydroxy-6Z-heptynoic acid, lithium salt [Example 22]”, the 50% inhibitory concentration (IC50) came out at 5000 nM at LTB4 receptor and 1800 nM in assay [1].
In the case of “Methyl 7-[4-(hydroxynonyl)phenyl]-5-hydroxy-6heptynoate [Example 11]”, the values for the IC50 (on LTB4 receptor; in assay [1]) were 1000 nM and 650 nM, respectively.
